The text below walks through data of patent publication US4794124A, “Therapeutic composition for diabetic complications” (priority 1985, dated 1988).

The subject of data set [1] is diabetic rats. In words: Blood glucose in streptozotocin-induced diabetic rats. The format is in vivo, male SD rats. The following applies: cysteine 400 mg/kg/day oral, n = 8-10, normal 220 ± 20. The procedure: (§1) The effects of oral administration of cysteine in diabetic rats were investigated.
(§2) A second group received tap water similarly.
(§3) Blood glucose was determined 2 days and 11 weeks after administration of streptozotocin to confirm that the rats were in hyperglycemic condition. Further, body weight was determined periodically during the study period. After 11 weeks, the blood was withdrawn from the abdominal aorta for clinical serum chemical examination. Moreover, to monitor the cataract supervening in diabetes, the rat crystalline lens was periodically examined using a slit lamp.

Data set [2] in a line: Time course of body weight in streptozotocin-induced diabetic rats. The format is in vivo, male SD rats. The following applies: long-term repeated administration, 400 mg/kg/day oral. The protocol: as §1, §2, §3
In data set [3] the test system is diabetic rats. In words: Clinical serum chemistry values at week 11 in streptozotocin-induced diabetic rats. As to conditions: 400 mg/kg/day oral. The format is in vivo, male SD rats. The procedure:
as §1, §2, §3

Another data set deals with rat crystalline lens. In words: Progression of cataract in streptozotocin-induced diabetic rats (slit lamp, 7 stages). The format is in vivo, male SD rats. As to conditions: 400 mg/kg/day oral. The protocol:
as §2, §3
The progression of cataract was evaluated on the scale of the following 7 stages up to mature cataract.
0: No lens opacity at all
I: Slight opacity of the lens epithelium or small vacuoles in the equatorial region.
II: Vacuoles multiplying and merging to spread into the cortex.
III: The vacuoles pervading most of the cortex have begun to disappear.
IV: The majority of vacuoles have disappeared and the whole cortex is translucent.
V: Opacity of the lens nucleus.
VI: Opacity of the whole lens (mature cataract)
Then, cataract which is a diabetic complication ready to develop in such diabetic animal models was studied by monitoring the rats for 11 weeks.
The bar graphs in FIG. 1(a) through (f) show the time course of cataract stages. […]

The next data set relates to lens sorbitol. In words: Sorbitol content of the lens in streptozotocin-induced diabetic rats. As to conditions: for Sorbitol content of the lens: n = 4-5.

Procedure for lens sorbitol: Using male SD rats weighing about 100 g, experimental diabetes was induced by injecting 70 mg/kg of streptozotocin into the caudal vein.
The rats were divided into 2 groups of 10 individuals. A first group of rats were given a 10% aqueous solution of cysteine in a volume of 0.2 ml/100 g body weight twice daily (cysteine 400 mg/kg/day) by gastric gavage beginning the day before administration of streptozotocin. This group is referred to as the cysteine-treated group. A second group received tap water similarly. This group is referred to as the control group.

`N[C@@H](CS)C(=O)O` [cysteine]: the Blood glucose with diabetic rats [1] (after 11 weeks, control 721 ± 75) was determined as 767 ± 77 mg/dL; in the data set with diabetic rats [1] (after 2 days, control 521 ± 78) it was 559 ± 99 mg/dL. Also, in data set [2], the “Effect on body weight gain in diabetic rats” value was “did not affect the body weight gain”. For the same molecule, the “Serum chemical parameters (overall)” value with diabetic rats [3] was “close to the normal values”. In addition, the Total bilirubin with diabetic rats [3] (n = 8-10, normal 0.2 ± 0.0, control 0.43 ± 0.23) worked out at 0.28 ± 0.18 mg/dL. The Uric acid in the data set on diabetic rats [3] (n = 8-10, normal 1.8 ± 0.4, control 2.5 ± 2.5) worked out at 1.5 ± 0.5 mg/dL. This molecule also gave a γ-GTP with diabetic rats [3] (n = 8-10, normal 2.4 ± 2.0, control 42.9 ± 31.3) of 13.4 ± 7.2 U/L. Also, the Lipid peroxide in the data set on diabetic rats [3] (n = 8-10, normal 3.95 ± 0.53, control 5.40 ± 0.68) was found to be 4.48 ± 0.56 nmol/dL. The ALP in the data set with diabetic rats [3] (n = 8-10, normal 48 ± 8, control 83 ± 25) turned out to be 68 ± 26 KAU. The Total cholesterol in the data set on diabetic rats [3] (n = 8-10, normal 51 ± 6, control 175 ± 76) came to 118 ± 57 mg/dL. The molecule further displayed a GPT in the data set on diabetic rats [3] (n = 8-10, normal 61 ± 27, control 450 ± 320) of 311 ± 184 U/L. Moreover, the Neutral lipid with diabetic rats [3] (n = 8-10, normal 90 ± 25, control 1437 ± 858) was determined as 645 ± 605 mg/dL. The molecule further returned a GOT in the data set with diabetic rats [3] (n = 8-10, normal 102 ± 42, control 952 ± 1038) of 495 ± 358 U/L. Also, in the data set on diabetic rats [3] (n = 8-10, normal 112 ± 13, control 493 ± 233), the β-lipoprotein worked out at 299 ± 173 mg/dL. In the data set on diabetic rats [3] (n = 8-10, normal 199 ± 15, control 297 ± 78), the LAP came out at 234 ± 66 GRU. This molecule also returned a TTT in the data set with diabetic rats [3] (thymol turbidity test, n = 8-10, normal 0.15 ± 0.05, control 3.94 ± 3.88) of 1.03 ± 0.90 U. Moreover, the ZST with diabetic rats [3] (zinc sulfate test, n = 8-10, normal 1.2 ± 0.1, control 6.2 ± 4.8) is given as 2.6 ± 1.3 U. In the data set on rat crystalline lens (any observation period (2, 4, 6, 8, 10, 11 weeks), FIG. 1), the “Progress of cataract compared with the control group” value is “the progress of cataract was inhibited”. For the same molecule, in the data set with rat crystalline lens (p<0.0001 vs control), the “Effect on progression of cataract (cumulative variance analysis)” value is “significant retarding effect on the progression of cataract”. In addition, the “Accumulation of sorbitol in the lens, cysteine-treated vs control group” value with lens sorbitol (2 and 3 weeks after streptozotocin) is “no significant difference”. The “Sorbitol content of the lens” value in the data set with lens sorbitol (after 2 weeks, control 0.996 ± 0.286) was found to be 1.056 ± 0.166 μmole/lens; in the data set with lens sorbitol (after 3 weeks, control 1.186 ± 0.164), 1.025 ± 0.031 μmole/lens.
